From patent US20210115509A1, “BIOMARKER FOR IDENTIFYING SPECIFIC EXPOSURE TO KETONES AND METHOD OF IDENTIFICATION USING THE SAME” (KOREA INSTITUTE OF SCIENCE AND TECHNOLOGY, priority 2019, published 2021)

How the values were obtained:
[1] = system: BEAS-2B human bronchial epithelial cell line; assay: MTT assay, cytotoxicity of ketone compounds in BEAS-2B cell line; assay type: cell-based
Method: BEAS-2B (Korean Cell Line Bank), a human bronchial epithelial cell line, was cultured using RPMI 1640 medium (Gibco, USA) supplemented with 10% FBS until the cells grew to about a confluence of 70 to 80% in a 100 mm dish.
Among ketones belonging to mVOCs (microbial volatile organic compounds) exposed to the environment, acetone, 2-butanone, 2-pentanone, 2-hexanone and 2-heptanone were selected, and the chemicals were dissolved in filtered distilled water (DW). A vehicle concentration was set to 0.1% or less in all experiments.
MTT assay using a BEAS-2B cell line was performed in accordance with the method of Mossman et al. (J. Immunol. Methods, 65, 55-63, 1983).
Specifically, the cells were seeded at a density of 3.5×10^4 cells/well in a 24-well plate and treated with the five ketone compounds dissolved in filtered distilled water, prepared in Example 1-2. After 48 hours, the result was mixed with 5 mg/ml of MTT (3-4,5-dimethylthiazol-2,5-diphenyltetrazolium bromide), added to a tube and incubated at 37° C. for 3 hours. Then, the medium was removed, the formed formazan crystal was dissolved in 500 μl of DMSO, and then 100 μl of the solution was transferred to a 96-well plate to measure an OD (optical density) value at 540 nm.

[2] = system: BEAS-2B human bronchial epithelial cell line; assay: Gene expression change by high-throughput RNA sequencing (NextSeq 500) in ketone-exposed BEAS-2B cells; assay type: cell-based
Method: RNA was extracted from cell samples of ketone-exposed and non-ketone-exposed groups using a TRIzol reagent (Life Technologies, USA) in accordance with the manufacturer's directions to isolate total RNA and the total RNA was purified using a RNeasy mini kit (Qiagen, USA). The concentration of each total RNA sample was determined by a ND-2000 spectrophotometer (Thermo Inc., DE, USA) as a spectrophotometer and Agilent 2100 Bioanalyzer (Agilent Technologies, USA).
The establishment of libraries from the total RNA obtained in Example 2-1 in the experimental group and the normal control group exposed to the ketones was carried out using a QuantSeq 3′ mRNA-Seq Library Prep Kit (Lexogen, Inc., Austria) in accordance with the manufacturer's directions. 500 ng of the total RNA was hybridized with an oligo-dT primer including an Illumina-compatible sequence at the 5′ end of RNA, followed by reverse transcription. After degradation of the RNA template, a second strand was synthesized using a random primer including an Illumina-compatible linker sequence at the 5′ end thereof. Double-stranded libraries were purified using magnetic beads to remove all reaction components. The library was amplified in order to add the entire adapter sequence required for cluster production, and the completed cDNA library was purified from the PCR components.
Sequencing was performed by high-throughput sequencing as single-end 75 sequencing using a NextSeq 500 (IIlumina, Inc., USA). Read count (RC) data was processed based on the quantile normalization method using EdgeR in R (R development Core Team, 2016) using Bioconductor (Gentleman et al., 2004). Gene classification was based on searches performed on DAVID (http://david.abcc.ncifcrf.gov/) and the Medline database (http://www.ncbi.nlm.nih.gov/).
The extracted data were analyzed through normalization using Agilent GeneSpring GX 12.6.1 (Agilent technologies, CA, USA) to analyze the expression pattern of each gene.

[3] = IC5 conc.: Acetone 5.38, 2-Butanone 22.27, 2-Pentanone 5.24, 2-Hexanone 14.82, 2-Heptanone 5.05 mM
[4] = IC20 conc.: Acetone 71.90, 2-Butanone 106.21, 2-Pentanone 39.38, 2-Hexanone 52.51, 2-Heptanone 20.22 mM

Compound: CCC(C)=O [2-Butanone, 2-butanone]
- concentration (105) providing a survival rate (viability) of 95% ([1]; BEAS-2B, 48 hours, MTT): 22270 µM
- concentration (1020) providing a survival rate (viability) of 80% ([1]; BEAS-2B, 48 hours, MTT): 106210 µM
- Fold change ADRA2A (NM_000681) [2, 3]: 0.185
- Fold change ATRNL1 (NR_074088) [2, 3]: 3.234
- Fold change C12orf79 (NR_046159) [2, 3]: 0.216
- Fold change C14orf80 (NR_046159) [2, 3]: 0.356
- Fold change CALML3 (NM_001286399) [2, 3]: 0.356
- Fold change CCDC184 (NM_001013635) [2, 3]: 2.379
- Fold change CD37 (NM_001040031) [2, 3]: 3.286
- Fold change CDHR1 (NM_001171971) [2, 3]: 0.470
- Fold change CHL1 (NM_001253387) [2, 3]: 0.274
- Fold change COL4A3 (NM_000091) [2, 3]: 2.264
- Fold change CRLF2 (NM_022148) [2, 3]: 0.359
- Fold change CSF3R (NM_172313) [2, 3]: 0.356
- Fold change DNMBP-AS1 (NR_024130) [2, 3]: 11.453
- Fold change EGR1 (NM_001964) [2, 3]: 0.422
- Fold change GNA14 (NM_004297) [2, 3]: 3.512
- Fold change LOC728752 (NR_036504) [2, 3]: 3.506
- Fold change PAX8 (NM_003466) [2, 3]: 6.636
- Fold change PRRT3-AS1 (NR_046734) [2, 3]: 2.207
- Fold change RBP3 (NM_002900) [2, 3]: 0.356
- Fold change SEPT14 (NM_207366) [2, 3]: 0.458
- Fold change SERPINA12 (NM_001304461) [2, 3]: 0.356
- Fold change SLC13A4 (NM_012450) [2, 3]: 7.697
- Fold change SPOCK2 (NM_001244950) [2, 3]: 3.020
- Fold change TSPAN1 (NM_005727) [2, 3]: 2.540
- Fold change USP12-AB1 (NR_046647) [2, 3]: 3.499
- Fold change VIPR†-AS1 (NR_046654) [2, 3]: 0.356
- Fold change XIRP1 (NM_001198621) [2, 3]: 0.356
- Fold change ZFP69B (NM_023070) [2, 3]: 4.676
- Fold change ZNF432 (NM_014650) [2, 3]: 2.326
- Fold change ZNF487 (NR_026693) [2, 3]: 0.356
- Fold change ADRA2A (NM_000681) [2, 4]: 0.184
- Fold change ATRNL1 (NR_074088) [2, 4]: 2.330
- Fold change C12orf79 (NR_046159) [2, 4]: 0.216
- Fold change C14orf80 (NR_046159) [2, 4]: 0.356
- Fold change CALML3 (NM_001286399) [2, 4]: 0.356
- Fold change CCDC184 (NM_001013635) [2, 4]: 6.647
- Fold change CD37 (NM_001040031) [2, 4]: 2.647
- Fold change CDHR1 (NM_001171971) [2, 4]: 0.222
- Fold change CHL1 (NM_001253387) [2, 4]: 0.268
- Fold change COL4A3 (NM_000091) [2, 4]: 3.577
- Fold change CRLF2 (NM_022148) [2, 4]: 0.359
- Fold change CSF3R (NM_172313) [2, 4]: 0.356
- Fold change DNMBP-AS1 (NR_024130) [2, 4]: 12.732
- Fold change EGR1 (NM_001964) [2, 4]: 0.404
- Fold change GNA14 (NM_004297) [2, 4]: 5.582
- Fold change LOC728752 (NR_036504) [2, 4]: 6.647
- Fold change PAX8 (NM_003466) [2, 4]: 2.233
- Fold change PRRT3-AS1 (NR_046734) [2, 4]: 2.147
- Fold change RBP3 (NM_002900) [2, 4]: 0.356
- Fold change SEPT14 (NM_207366) [2, 4]: 0.217
- Fold change SERPINA12 (NM_001304461) [2, 4]: 0.356
- Fold change SLC13A4 (NM_012450) [2, 4]: 8.571
- Fold change SPOCK2 (NM_001244950) [2, 4]: 8.426
- Fold change TSPAN1 (NM_005727) [2, 4]: 2.466
- Fold change USP12-AB1 (NR_046647) [2, 4]: 5.570
- Fold change VIPR†-AS1 (NR_046654) [2, 4]: 0.356
- Fold change XIRP1 (NM_001198621) [2, 4]: 0.356
- Fold change ZFP69B (NM_023070) [2, 4]: 2.942
- Fold change ZNF432 (NM_014650) [2, 4]: 6.342
- Fold change ZNF487 (NR_026693) [2, 4]: 0.356

Compound: CCCCCC(C)=O [2-Heptanone, 2-heptanone]
- concentration (105) providing a survival rate (viability) of 95% ([1]; human, 48 h): 5050 µM
- concentration (1020) providing a survival rate (viability) of 80% ([1]; human, 48 h): 20220 µM
- Fold change ADRA2A (NM_000681) [2, 3]: 0.321
- Fold change ATRNL1 (NR_074088) [2, 3]: 3.365
- Fold change C12orf79 (NR_046159) [2, 3]: 0.213
- Fold change C14orf80 (NR_046159) [2, 3]: 0.354
- Fold change CALML3 (NM_001286399) [2, 3]: 0.354
- Fold change CCDC184 (NM_001013635) [2, 3]: 4.098
- Fold change CD37 (NM_001040031) [2, 3]: 5.216
- Fold change CDHR1 (NM_001171971) [2, 3]: 0.386
- Fold change CHL1 (NM_001253387) [2, 3]: 0.122
- Fold change COL4A3 (NM_000091) [2, 3]: 4.774
- Fold change CRLF2 (NM_022148) [2, 3]: 0.355
- Fold change CSF3R (NM_172313) [2, 3]: 0.354
- Fold change DNMBP-AS1 (NR_024130) [2, 3]: 2.035
- Fold change EGR1 (NM_001964) [2, 3]: 0.410
- Fold change GNA14 (NM_004297) [2, 3]: 4.971
- Fold change LOC728752 (NR_036504) [2, 3]: 5.873
- Fold change PAX8 (NM_003466) [2, 3]: 4.275
- Fold change PRRT3-AS1 (NR_046734) [2, 3]: 2.285
- Fold change RBP3 (NM_002900) [2, 3]: 0.354
- Fold change SEPT14 (NM_207366) [2, 3]: 0.214
- Fold change SERPINA12 (NM_001304461) [2, 3]: 0.354
- Fold change SLC13A4 (NM_012450) [2, 3]: 4.638
- Fold change SPOCK2 (NM_001244950) [2, 3]: 4.800
- Fold change TSPAN1 (NM_005727) [2, 3]: 4.660
- Fold change USP12-AB1 (NR_046647) [2, 3]: 11.319
- Fold change VIPR†-AS1 (NR_046654) [2, 3]: 0.354
- Fold change XIRP1 (NM_001198621) [2, 3]: 0.354
- Fold change ZFP69B (NM_023070) [2, 3]: 3.346
- Fold change ZNF432 (NM_014650) [2, 3]: 3.207
- Fold change ZNF487 (NR_026693) [2, 3]: 0.354
- Fold change ADRA2A (NM_000681) [2, 4]: 0.179
- Fold change ATRNL1 (NR_074088) [2, 4]: 3.204
- Fold change C12orf79 (NR_046159) [2, 4]: 0.213
- Fold change C14orf80 (NR_046159) [2, 4]: 0.354
- Fold change CALML3 (NM_001286399) [2, 4]: 0.354
- Fold change CCDC184 (NM_001013635) [2, 4]: 6.381
- Fold change CD37 (NM_001040031) [2, 4]: 3.227
- Fold change CDHR1 (NM_001171971) [2, 4]: 0.216
- Fold change CHL1 (NM_001253387) [2, 4]: 0.335
- Fold change COL4A3 (NM_000091) [2, 4]: 8.193
- Fold change CRLF2 (NM_022148) [2, 4]: 0.355
- Fold change CSF3R (NM_172313) [2, 4]: 0.354
- Fold change DNMBP-AS1 (NR_024130) [2, 4]: 11.098
- Fold change EGR1 (NM_001964) [2, 4]: 0.381
- Fold change GNA14 (NM_004297) [2, 4]: 4.498
- Fold change LOC728752 (NR_036504) [2, 4]: 5.440
- Fold change PAX8 (NM_003466) [2, 4]: 4.602
- Fold change PRRT3-AS1 (NR_046734) [2, 4]: 2.525
- Fold change RBP3 (NM_002900) [2, 4]: 0.354
- Fold change SEPT14 (NM_207366) [2, 4]: 0.214
- Fold change SERPINA12 (NM_001304461) [2, 4]: 0.354
- Fold change SLC13A4 (NM_012450) [2, 4]: 11.825
- Fold change SPOCK2 (NM_001244950) [2, 4]: 2.838
- Fold change TSPAN1 (NM_005727) [2, 4]: 3.058
- Fold change USP12-AB1 (NR_046647) [2, 4]: 4.509
- Fold change VIPR†-AS1 (NR_046654) [2, 4]: 0.354
- Fold change XIRP1 (NM_001198621) [2, 4]: 0.354
- Fold change ZFP69B (NM_023070) [2, 4]: 2.674
- Fold change ZNF432 (NM_014650) [2, 4]: 4.845
- Fold change ZNF487 (NR_026693) [2, 4]: 0.354
